By pIC50 is commonly meant the IC50 on a negative log10 scale, so that one unit is a factor of ten. A word on the inhibition: it is the change of the read-out against control, counted positive when it falls. Lower therefore signals a response near the control.

The source of these data is EP0993437B1, “2-(4-BROMO OR 4-IODO PHENYLAMINO) BENZOIC ACID DERIVATIVES AND THEIR USE AS MEK INHIBITORS” (Warner-Lambert Company LLC, priority 1997, dated 1999).

pIC50: −log10 of the molar value. Structures can show the parent of a compound that is named as a salt.

In one assay the target is MEK. Description: Cascade assay for inhibitors of the MAP kinase pathway (In Vitro). The assay is classed as biochemical. The protocol:
Incorporation of ^32P into myelin basic protein (MBP) was assayed in the presence of a glutathione S-transferase fusion protein containing p44MAP kinase (GST-MAPK) and a glutathione S-transferase fusion protein containing p45MEK (GST-MEK). The assay solution contained 20 mM HEPES, pH 7.4, 10 mM MgCl2, 1-mM MnCl2, 1 mM EGTA, 50 µM [γ-^32P]ATP, 10 µg GST-MEK, 0.5 µg GST-MAPK and 40 µg MBP in a final volume of 100 µL. […] Compounds were assessed at 10 µM for ability to inhibit incorporation of ^32P.
To ascertain whether compounds were inhibiting GST-MEK or GST MAPK, two additional protocols were employed. In the first protocol, compounds were added to tubes containing GST-MEK, followed by addition of GST-MAPK, MBP and [γ-^32P]ATP.

In another assay the test system is MAP kinase. The assay is described as follows: Whole cell MAP kinase assay (In Vivo, Cell Culture). The assay is classed as cell-based. As to the method:
Cells were then serum-deprived overnight. Cells were exposed to the desired concentrations of compound or vehicle (DMSO) for 30 minutes, followed by addition of a growth factor, for example, PDGF (100 ng/mL). After a 5-minute treatment with the growth factor, cells were washed with PBS, then lysed in a buffer consisting of 70 mM NaCl, 10 mM HEPES (pH 7.4), 50 mM glycerol phosphate, and 1% Triton X-100. Lysates were clarified by centrifugation at 13,000 × g for 10 minutes. Five micrograms of the resulting supernatants were incubated with 10 µg microtubule associated protein-2 (Map2) for 15 minutes at 30°C in a final volume of 25 µL containing 50 mM Tris (pH 7.4), 10 mM MgCl2, 2 mM EGTA and 30 µM [γ-^32P]ATP, Reactions were terminated by addition of Laemmli sample buffer.

Regarding `Cc1cc(I)ccc1Nc1c(C(=O)O)cc(F)c(F)c1F` [Example 2, 3,4,5-Trifluoro-2-(4-iodo-2-methyl-phenylamino)-benzoic acid], the results for the negative-log IC50 (pIC50) on MEK and in the assay on MAP kinase were 7.85 and 5.52, respectively.

Regarding `Cc1cc(I)ccc1Nc1c(C(=O)O)ccc(F)c1F` [Example 3, 3,4-Difluoro-2-(4-iodo-2-methyl-phenylamino)-benzoic acid], the figures for the pIC50 on MEK and with MAP kinase were 7.95 and 5.00, respectively. On to `Cc1cc(I)ccc1Nc1c(C(=O)O)cc(Br)c(F)c1F` [Example 4, 5-Bromo-3,4-difluoro-2-(4-iodo-2-methyl-phenylamino)-benzoic acid], for which the pIC50 against MEK was 8.30; with MAP kinase, 6.00. The compound `Cc1cc(I)ccc1Nc1ccccc1C(=O)O` [Example 19, 2-(4-Iodo-2-methyl-phenylamino)-benzoic acid] gave a negative-log IC50 (pIC50) on MEK of 6.28. In the assay on MAP kinase, this compound returned an inhibition at 30 µM of 50%. For `Cc1cc(I)ccc1Nc1c(F)cc(C(=O)O)c(F)c1F` [Example 22, 2,3 ,5 -Trifluoro-4-(4-iodo-2-methyl-phenylamino)-benzoic acid], in that order: 5.80 and 30%. On to `Cc1cc(I)ccc1Nc1cccc(F)c1C(=O)O` [Example 26, 2-Fluoro-6-(4-iodo-2-methyl-phenylamino)-benzoic acid], for which the negative logarithm of the IC50 (pIC50) at MEK is 5.58. In the assay with MAP kinase, the inhibition at 30 µM is 50%. Take `Cc1cc(I)ccc1Nc1cc([N+](=O)[O-])ccc1C(=O)O` [Example 30, 2-(4-Iodo-2-methyl-phenylamino)-4-nitro-benzoic acid]: the “In Vitro % Inhibition” value in the assay with MEK (compounds assessed at 10 µM) worked out at 105%. Also, the pIC50 in the assay on MAP kinase is 5.00. For `Cc1cc(I)ccc1Nc1cc(F)ccc1CO` [Example 49, 4-Fluoro-2-(4-iodo-2-methyl-phenylamino)-benzyl alcohol], the pIC50 against MEK is 6.38; with MAP kinase, 5.52. As to `Cc1cc(I)ccc1Nc1ccc(Cl)cc1C(=O)NCCN1CCCC1` [Example 96, 5-Chloro-2-(4-iodo-2-methyl-phenylamino)-N-(2-pyrrolidin-1-yl-ethyl)-benzamide], on MEK, the pIC50 is 6.43. The same measure, in the same setting: for `Cc1cc(I)ccc1Nc1ccc(Br)cc1C(=O)N1CCC(O)C1` (centres unmarked) [Example 100, [5-Bromo-2-(4-iodo-2-methyl-phenylamino)-phenyl]-(3-hydroxy-pyrrolidin-1-yl)-] the value was 5.70; for `Cc1cc(I)ccc1Nc1ccc([N+](=O)[O-])cc1C(=O)NC1CCCCC1` [Example 184, N-Cyclohexyl-2-(4-iodo-2-methyl-phenylamino)-5-nitro-benzamide], 6.56.

`Cc1cc(I)ccc1Nc1ccc(Cl)cc1C(=O)NCCO` [Example 187, 5-Chloro-N-(2-hydroxy-ethyl)-2-(4-iodo-2-methyl-phenylamino)-benzamide] had a negative logarithm of the IC50 (pIC50) against MEK of 6.25. The same measure, in the same setting: then `Cc1cc(I)ccc1Nc1ccc(Br)cc1C(=O)NCCO` [Example 188, 5-Bromo-N-(2-hydroxy-ethyl)-2-(4-iodo-2-methyl-phenylamino)-benzamide], with 6.11. On the same count and under the same terms, then `Cc1cc(I)ccc1Nc1ccc([N+](=O)[O-])cc1C(=O)N(C)c1ccccc1` [Example 189, 2-(4-Iodo-2-methyl-phenylamino)-N-methyl-5-nitro-N-phenyl-benzamide], with 6.07; and `Cc1cc(I)ccc1Nc1ccc(Cl)cc1C(=O)N(C)c1ccccc1` [Example 190, 5-Chloro-2-(4-iodo-2-methyl-phenylamino)-N-methyl-N-phenyl-benzamide], with 6.04. On the same count and under the same terms, then `Cc1cc(I)ccc1Nc1ccc(I)cc1C(=O)NCCO` [Example 191, N-(2-Hydroxy-ethyl)-5-iodo-2-(4-iodo-2-methyl-phenylamino)-benzamide], with 5.87; and `Cc1cc(I)ccc1Nc1ccc(Cl)cc1C(=O)NC1CC1` [Example 192, 5-Chloro-N-cyclopropyl-2-(4-iodo-2-methyl-phenylamino)-benzamide], with 5.75; and `C=CCNC(=O)c1cc(Cl)ccc1Nc1ccc(I)cc1C` [Example 193, N-Allyl-5-chloro-2-(4-iodo-2-methyl-phenylamino)-benzamide], with 5.54. Take `Cc1cc(I)ccc1Nc1ccc(F)cc1C(=O)N(C)c1ccccc1` [Example 194, 5-Fluoro-2-(4-iodo-2-methyl-phenylamino)-N-methyl-N-phenyl-benzamide]: at MEK, the pIC50 was 5.31.

In the case of `Cc1cc(I)ccc1Nc1ccccc1-c1nnn[nH]1` [Example 208, (4-Iodo-2-methyl-phenyl)-[2-(1H-tetrazol-5-yl)-phenyl]amine], on MEK, the negative-log IC50 (pIC50) is 5.92. For `Cc1cc(I)ccc1Nc1ccc([N+](=O)[O-])cc1-c1nnn[nH]1` [Example 209, [4-Nitro-2-(1H-tetrazol-5-yl)phenyl]-(4-iodo-2-methyl-phenyl)-amine], the pIC50 against MEK was 5.86. Still for that read-out and setting: for `Nc1c([N+](=O)[O-])cc(C(=O)O)c(Nc2ccc(I)cc2Cl)c1F` [Example 211, 4-Amino-2-(2-chloro-4-iodo-phenylamino)-3-fluoro-5-nitro-benzoic acid] the value was less than 7.00. At MEK, `O=C(O)c1cc([N+](=O)[O-])c(Nc2ccc(I)cc2Cl)c(F)c1Nc1ccc(I)cc1Cl` [Example 212, 2,4-Bis-(2-chloro-4-iodo-phenylamino)-3-fluoro-5-nitro-benzoic acid] showed a negative logarithm of the IC50 (pIC50) of 7.47. Still for that read-out and setting: for `Cc1cc(I)ccc1Nc1cc(F)c([N+](=O)[O-])cc1C(=O)O` [Example 213, 4-Fluoro-2-(4-iodo-2-methyl-phenylamino)-5-nitro-benzoic acid] the value was 7.21. Consider `O=C(O)c1ccc(F)c(F)c1Nc1c(F)cc(I)cc1F` [Example 214, 2-(2,6-Difluoro-4-iodo-phenylamino)-3,4-difluoro-benzoic acid], for which the pIC50 against MEK is 6.52. Turning to `O=C(O)c1ccc([N+](=O)[O-])cc1Nc1ccc(I)cc1Cl` [Example 215, 2-(2-Chloro-4-iodo-phenylamino)-4-nitro-benzoic acid], on MEK, the pIC50 was 7.51.

`O=C(O)c1ccc(F)cc1Nc1ccc(I)cc1I` [Example 216, 2-(2,4-Diiodo-phenylamino)-4-fluoro-benzoic acid] gave a negative-log IC50 (pIC50) at MEK of 6.00. Same read-out and setting: then `O=C(O)c1ccc(F)cc1Nc1ccc(I)cc1Br` [Example 217, 2-(2-Bromo-4-iodo-phenylamino)-4-fluoro-benzoic acid], with less than 6.00; and `O=C(O)c1ccc(F)cc1Nc1ccc(I)cc1F` [Example 218, 4-Fluoro-2-(2-fluoro-4-iodo-phenylamino)-benzoic acid], with 7.29. Turning to `O=C(O)c1ccc(F)cc1Nc1ccc(I)cc1Cl` [Example 219, 2-(2-Chloro-4-iodo-phenylamino)-4-fluoro-benzoic acid], the pIC50 against MEK is 6.97.

On MEK, `COC(=O)c1c(F)c(F)c(N2CCN(C)CC2)c(F)c1Nc1ccc(I)cc1C` [Example 221, 2,3,5-Trifluoro-6-(4-iodo-2-methyl-phenylamino)-4-(4-methyl-piperazin-1-yl)-benzoic acid methyl ester dihydrofluoride salt] gave a negative-log IC50 (pIC50) of 8.70. Still for that read-out and setting: then `Cc1cc(I)ccc1Nc1c(C(=O)NN2CCN(C)CC2)cc(Br)c(F)c1F` [Example 222, 5-Bromo-3,4-difluoro-2-(4-iodo-2-methyl-phenylamino)-N-(4-methyl-piperazin-1-yl)-benazmide], with 7.07; and `Cc1cc(I)ccc1Nc1c(C(=O)NN(C)C)cc(Br)c(F)c1F` [Example 223, 5-Bromo-3,4-difluoro-2-(4-iodo-2-methyl-phenylamino)-benzoic acid N',N'-dimethyl-hydrazide], with 7.37. Still for that read-out and setting: for `Cc1cc(I)ccc1Nc1cc(F)ccc1C(=O)NN` [Example 224, 4-Fluoro-2-(4-iodo-2-methyl-phenylamino)-benzoic acid hydrazide] the value was 7.55; for “N-(2,3-Dihydroxy-propyl)-3,4-difluoro-2-(4-iodo-2-methyl-phenylamino)-benzamide [Example 54]”, 6.80. The same measure, in the same setting: for “N-(2,3-Dihydroxy-propyl)-4-fluoro-2-(4-iodo-2-methyl-phenylamino)-benzamide [Example 57]” the value was 6.40.
